The structures appear in SMILES notation.

The first assay has as its target human recombinant ATX (Homo sapiens, UniProt Q13822). Briefly: Enzyme inhibitory test (choline release from LPC, fluorescence). It counts as biochemical. The note with it: LPC substrate, room temperature 1 hr, read-out: Experimental Example 1 human ATX IC50. As to the method: A mixture (10 μL) of substrate and a set of choline quantification reagents (200 μM LPC (1-Oleoyl-sn-glycero-3-phosphocholine Sigma #L1881), 25 μM Amplex UltraRed reagent (Invitrogen), 0.1 U/mL Peroxidase (TOYOBO), 1 U/mL Choline oxidase (TOYOBO)), prepared with assay buffer (50 mM Tris (pH 8.0), 140 mM NaCl, 5 mM KCl, 1 mM CaCl2, 1 mM MgCl2, 0.1% BSA (Albumin from bovine serum, SIGMA), 0.0025% Triton X-100), enzyme (0.4 ng/μL human recombinant ATX) (10 μL), compound-containing solution (100 nL) were dispensed to a 384-well plate, incubated at room temperature for 1 hr and the fluorescence (Ex.525 nm/Em.598 nm) was measured. As the standard, choline chloride was used. With a blank free of enzyme was taken as inhibitory rate 100%, and a control free of inhibitor as inhibitory rate 0%, the inhibitory rate was calculated, and IC50 value was calculated from the inhibitory activity percentage at each concentration.
`COc1ccc(-c2ccc(NCc3cccc(OC(F)(F)F)c3)nc2)nc1[C@H]1C[C@@H]1C(=O)O` [16 (compound 1a), (1S,2S)-2-[5-methoxy-6′-(3-trifluoromethoxy-benzylamino)-[2,3′]bipyridinyl-6-yl]-cyclopropanecarboxylic acid]: the IC50 was 2 nM.

As to `COc1ccc(-c2cnc(NCc3cccc(OC(F)(F)F)c3)nc2)nc1[C@H]1C[C@@H]1C(=O)O` [17 (compound 4a), (1S,2S)-2-{3-methoxy-6-[2-(3-trifluoromethoxy-benzylamino)-pyrimidin-5-yl]-pyridin-2-yl}-cyclopropanecarboxylic acid], the IC50 was 2 nM.

As for `O=C(O)c1cccc2nc(-c3ccc(NCc4cccc(OC(F)(F)F)c4)nc3)[nH]c12` [Example 2, 2-[6-(3-trifluoromethoxy-benzylamino)-pyridin-3-yl]-3H-benzimidazole-4-carboxylic acid], the IC50 is 46 nM.

For `O=C(O)c1ccc2nc(-c3ccc(NCc4cccc(OC(F)(F)F)c4)nc3)oc2c1` [Example 3, 2-[6-(3-trifluoromethoxy-benzylamino)-pyridin-3-yl]-benzoxazole-6-carboxylic acid], the IC50 amounted to 35 nM.

For the molecule `Cn1nc(C(=O)O)c2cc(-c3ccc(NCc4cccc(OC(F)(F)F)c4)nc3)ccc21` [Example 7, 1-methyl-5-[6-(3-trifluoromethoxy-benzylamino)-pyridin-3-yl]-1H-indazole-3-carboxylic acid], the IC50 was 3 nM.

For the molecule `COc1c(C#N)cc(-c2ccc(NCc3cccc(OC(F)(F)F)c3)nc2)cc1CCC(=O)O` [Example 10, 3-{3-cyano-2-methoxy-5-[6-(3-trifluoromethoxy-benzylamino)-pyridin-3-yl]-phenyl}-propionic acid], the concentration for half-maximal inhibition (IC50) was determined as 17 nM.

For `O=C(O)CCc1cc(-c2cnc(NCc3cccc(OC(F)(F)F)c3)nc2)ccc1Cl` [Example 11, 3-{2-chloro-5-[2-(3-trifluoromethoxy-benzylamino)-pyrimidin-5-yl]-phenyl}-propionic acid], the IC50 came to 13 nM.

In the case of `COc1ccc(-c2cnc(NCc3cccc(OC(F)(F)F)c3)nc2)cc1CCC(=O)O` [Example 21, 3-{2-methoxy-5-[2-(3-trifluoromethoxy-benzylamino)-pyrimidin-5-yl]-phenyl}-propionic acid], the concentration for half-maximal inhibition (IC50) is 37 nM.

Consider `COc1ccc(-c2ccc(NCc3cccc(OC(F)(F)F)c3)nc2)cc1CCC(=O)O` [Example 22, 3-{2-methoxy-5-[6-(3-trifluoromethoxy-benzylamino)-pyridin-3-yl]-phenyl}-propionic acid], for which the IC50 was 33 nM.

As to `COc1c(C#N)cc(-c2ccc(NCc3cccc(OC(F)(F)F)c3)nc2)cc1C(C)(C)C(=O)O` [Example 26, 2-{3-cyano-2-methoxy-5-[6-(3-trifluoromethoxy-benzylamino)-pyridin-3-yl]-phenyl}-2-methyl-propionic acid], the IC50 is 15 nM.

On to `O=C(O)c1cc(-c2cnc(NCc3cccc(OC(F)(F)F)c3)nc2)cc(OC2CNC2)c1Cl` [Example 30, 3-(azetidin-3-yloxy)-2-chloro-5-[2-(3-trifluoromethoxy-benzylamino)-pyrimidin-5-yl]-benzoic acid], for which the IC50 turned out to be 22 nM.

For `COc1c(C(=O)O)cc(-c2cnc(NCc3cccc(OC(F)(F)F)c3)nc2)cc1-c1ccncc1` [Example 33, 2-methoxy-3-pyridin-4-yl-5-[2-(3-trifluoromethoxy-benzylamino)-pyrimidin-5-yl]-benzoic acid], the half-inhibitory concentration (IC50) is 10 nM.

For the molecule `COc1ccc(-c2ccc(NCc3cccc(OC(F)(F)F)c3)nc2)cc1C(=O)O` [Example 34, 2-methoxy-5-[6-(3-trifluoromethoxy-benzylamino)-pyridin-3-yl]-benzoic acid], the IC50 was 83 nM.

In the case of `O=C(O)CN1CCN(c2ccc(-c3ccc(NCc4cccc(OC(F)(F)F)c4)nc3)cc2F)C1=O` [Example 44], the IC50 is 75 nM.

Take `COc1c(C#N)cc(-c2ccc(NCc3cccc(OC(F)(F)F)c3)nc2)cc1C(=O)O` [Example 63]: the IC50 worked out at 25 nM.

Regarding `COc1ccc(-c2ccc(NCc3cccc(OC(F)(F)F)c3)nc2)c2[nH]nc(C(=O)O)c12` [Example 69], the half-maximal inhibitory concentration (IC50) was determined as 10 nM.

On to `COCCn1nc(C(=O)O)c2cc(-c3ccc(NCc4cccc(OC(F)(F)F)c4)nc3)ccc21` [Example 73], for which the IC50 amounted to 9 nM.

`Cn1nc(C(=O)O)c2cc(-c3cnc(NCc4cccc(OC(F)(F)F)c4)nc3)ccc21` [Example 74]: the half-inhibitory concentration (IC50) came to 3 nM.

Consider `CS(=O)(=O)CCCn1nc(C(=O)O)c2cc(-c3ccc(NCc4cccc(OC(F)(F)F)c4)nc3)ccc21` [Example 75], for which the concentration for half-maximal inhibition (IC50) was 6 nM.

For the molecule `COc1c(C#N)cc(-c2cnc(NCc3cccc(OC(F)(F)F)c3)nc2)cc1CCC(=O)O` [Example 85], the IC50 was 7 nM.

`COc1cc(-c2ccc(NCc3cccc(OC(F)(F)F)c3)nc2)ccc1C1CC1C(=O)O` (stereo not shown) [Example 88]: the IC50 was 20 nM.

`COc1c(CCC(=O)O)cc(-c2ccc(NCc3cccc(OC(F)(F)F)c3)nc2)cc1C1COC1` [Example 92]: the half-maximal inhibitory concentration (IC50) is 23 nM.

Consider `COc1cc(-c2ccc(NCc3cccc(OC(F)(F)F)c3)nc2)cc(OC)c1CCC(=O)O` [Example 98], for which the IC50 worked out at 7 nM.

As for `COc1c(Cn2ccnc2)cc(-c2ccc(NCc3cccc(OC(F)(F)F)c3)nc2)cc1C(C)(C)C(=O)O` [Example 108], the IC50 is 24 nM.

For `COc1ccc(-c2ccc(NCc3cccc(OC(F)(F)F)c3)nc2)cc1CC(=O)O` [Example 109], the half-maximal inhibitory concentration (IC50) stood at 12 nM.

Turning to `COc1cc(-c2ccc(NCc3cccc(OC(F)(F)F)c3)nc2)ccc1OC[C@H]1CC[C@H](C(=O)O)CC1` [Example 126], the IC50 was 92 nM.

As for `COc1ccc(-c2ccc(NCc3cccc(OC(F)(F)F)c3)nc2)cc1OCC(=O)O` [Example 129], the half-maximal inhibitory concentration (IC50) amounted to 43 nM.

Regarding `COCCOc1cc(-c2cnc(NCc3cccc(OC(F)(F)F)c3)nc2)cc(C(=O)O)c1Cl` [Example 132], the 50% inhibitory concentration (IC50) is 15 nM.

Take `O=C(O)c1cc(-c2cnc(NCc3cccc(OC(F)(F)F)c3)nc2)cc(OC2CCOCC2)c1Cl` [Example 133]: the IC50 was 10 nM.

In the case of `O=C(O)c1cc(-c2cnc(NCc3cccc(OC(F)(F)F)c3)nc2)cc(OC2COC2)c1Cl` [Example 136], the IC50 was 31 nM.

As to `COc1c(C(=O)O)cc(-c2cnc(NCc3cccc(OC(F)(F)F)c3)nc2)cc1-c1ccoc1` [Example 140], the IC50 was determined as 31 nM.

`COc1ccc(-c2cnc(NCc3cccc(OC(F)(F)F)c3)nc2)cc1C(=O)O` [Example 156]: the IC50 was determined as 93 nM.

Take `COc1ccc(-c2ccc(NCc3cccc(C(C)C)c3)nc2)cc1C(=O)O` [Example 176]: the IC50 worked out at 47 nM.

The target in another assay is T1, ATX activity in plasma (Rattus norvegicus, UniProt Q64610).
T1 construct: from tissue; host or cells: plasma of male Wistar rats after oral dosing (ex vivo)
Briefly: Measurement of ATX activity in plasma (ex vivo) after oral administration to rats. The note with it: male Wistar rat, 8 hr after administration, plasma ATX activity vs solvent control. As to the method: A compound administration solution prepared by wet pulverization in a mixer mill (type: MM400) for 10 min and adjusting to a given concentration with 0.5% aqueous carboxymethylcellulose solution was orally administered to male Wistar rat (5-week-old when used) at 5 mL/kg. Blood samples were collected from the cervical vein over time at 8 to 24 hr after administration. The blood was heparin-treated using a micro blood collection tube Capiject (CJ-AL, TERUMO CORPORATION), and the plasma was separated by centrifugation (4° C., 12,000 rpm, 2 min), and preserved at −80° C. The rats after blood sampling were euthanized by exsanguination from the caudal vena cava under isoflurane inhalation anesthesia. The measurement of ATX activity in plasma was evaluated using the concentration of choline in the plasma, which was liberated from lysophosphatidylcholine (substrate of ATX) by the lysophospholipase D activity of ATX, as an index. An equal amount of 2× assay buffer (200 mM Tris-HCl pH9.0, 10 mM MgCl2, 1 M NaCl, 0.1% Triton X-100) is added to plasma (12 μL) and reacted at 37° C. for 6 hr. The reaction mixture (10 μL) after reaction for 6 hr and 45 μL of reagent R1 solution (100 mM Tris-HCl pH 8.0, 0.5 mM TOOS, 10 U/mL peroxidase, 0.01% Triton X-100) were added and blended and absorbance at 550-700 nm was measured and used as a prevalue. As the standard, choline chloride was used. 1 mM choline chloride was diluted with 2× assay buffer up to 7 steps in 2-fold serial dilution, R1 solution was treated similarly and the absorbance was measured. Furthermore, 15 μL of reagent R2 solution (100 mM Tris-HCl pH 8.0, 1 mM 4-aminoantipyrine, 10 U/mL choline oxidase, 0.01% Triton X-100) was added, and the mixture was reacted at room temperature for 10 min, and absorbance at 550-700 nm was measured. The choline concentration per reaction time was calculated from the difference between the absorbance after R2 solution addition and prevalue measured before R2 addition and used as ATX activity value. inhibitory activity (%)=100×{1-[choline concentration (μM) of test substance administration group/choline concentration (μM) of solvent control group]} <calculating formula>
Consider `COc1ccc(-c2cnc(NCc3cccc(OC(F)(F)F)c3)nc2)nc1[C@H]1C[C@@H]1C(=O)O` [17 (compound 4a), (1S,2S)-2-{3-methoxy-6-[2-(3-trifluoromethoxy-benzylamino)-pyrimidin-5-yl]-pyridin-2-yl}-cyclopropanecarboxylic acid], for which the “Experimental Example 2 rat single administration test (inhibitory activity (%) at 8 hr after 1 mg/kg oral administration)” value is reported as 88%.

In the case of `COc1c(C#N)cc(-c2ccc(NCc3cccc(OC(F)(F)F)c3)nc2)cc1CCC(=O)O` [Example 10, 3-{3-cyano-2-methoxy-5-[6-(3-trifluoromethoxy-benzylamino)-pyridin-3-yl]-phenyl}-propionic acid], the “Experimental Example 2 rat single administration test (inhibitory activity (%) at 8 hr after 1 mg/kg oral administration)” value came out at 84%.

For `COc1c(C#N)cc(-c2cnc(NCc3cccc(OC(F)(F)F)c3)nc2)cc1CCC(=O)O` [Example 85], the “Experimental Example 2 rat single administration test (inhibitory activity (%) at 8 hr after 1 mg/kg oral administration)” value is listed as 88%.

On to `COc1ccc(-c2cnc(NCc3cccc(OC(F)(F)F)c3)nc2)cc1C(=O)O` [Example 156], for which the “Experimental Example 2 rat single administration test (inhibitory activity (%) at 8 hr after 1 mg/kg oral administration)” value was 82%.

As usually defined, the IC50 is the concentration that gives 50% inhibition.

(Values after patent US9783522B2, “2-amino-pyridine and 2-amino-pyrimidine derivatives and medicinal use thereof” (MITSUBISHI TANABE PHARMA CORPORATION, priority 2014, dated 2017).)
